ChEMBL document CHEMBL1201862, “PubChem BioAssay data set” (2004)
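Following 48 hours of exposure in 96-well plates, responses at five concentrations were used to interpolate endpoints linearly. GI50 = concentration required for 50% inhibition of growth.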 Active and inactive are the calls of the source. Rule as the data show it: active = GI50 up to about 1.1 µM and inactive = higher.

What was measured:
Assay in all cases: NCI tumour cell line growth inhibition, 48 h
786-0 = system: 786-0
A549 = system: A549
BT-549 = system: BT-549
CCRF-CEM = system: CCRF-CEM
EKVX = system: EKVX
K562 = system: K562
MDA-MB-231 = system: MDA-MB-231
MDA-MB-435 = system: MDA-MB-435
NCI-H226 = system: NCI-H226
NCI-H460 = system: NCI-H460
NCI-H522 = system: NCI-H522
OVCAR-3 = system: OVCAR-3
OVCAR-4 = system: OVCAR-4
PC-3 = system: PC-3
RPMI-8226 = system: RPMI-8226
SK-OV-3 = system: SK-OV-3
SN12C = system: SN12C
U-251 = system: U-251
UACC-257 = system: UACC-257

Measured: GI50

Clc1ccccc1-c1nn2c(CCCCCCCCc3nnc4sc(-c5ccccc5Cl)nn34)nnc2s1
inactive: 786-0 > 100 µM | A549 > 100 µM | BT-549 > 100 µM | CCRF-CEM 61.7 µM | EKVX > 100 µM | K562 > 100 µM | MDA-MB-231 87.7 µM | MDA-MB-435 > 100 µM | NCI-H226 > 100 µM | NCI-H460 > 100 µM | NCI-H522 77.3 µM | OVCAR-3 > 100 µM | OVCAR-4 > 100 µM | PC-3 > 100 µM | RPMI-8226 54 µM | SK-OV-3 > 100 µM | SN12C > 100 µM | U-251 > 100 µM | UACC-257 > 100 µM

c1ccc2c(c1)CCc1c-2n(CCN2CCOCC2)c2ccccc12
inactive: 786-0 > 100 µM | A549 > 100 µM | BT-549 > 100 µM | CCRF-CEM 21.2 µM | EKVX > 100 µM | K562 2.14 µM | MDA-MB-231 > 100 µM | MDA-MB-435 > 100 µM | NCI-H226 52.6 µM | NCI-H460 26.5 µM | NCI-H522 13.3 µM | OVCAR-3 > 100 µM | OVCAR-4 > 100 µM | PC-3 19.1 µM | RPMI-8226 35.2 µM | SK-OV-3 26 µM | SN12C > 100 µM | U-251 > 100 µM | UACC-257 32.9 µM

c1ccc2c[n+](Cc3ccnc4ccccc34)ccc2c1
inactive: 786-0 > 100 µM | A549 > 100 µM | BT-549 > 100 µM | CCRF-CEM > 100 µM | EKVX 71 µM | K562 > 100 µM | MDA-MB-231 > 100 µM | MDA-MB-435 > 100 µM | NCI-H226 41.8 µM | NCI-H460 > 100 µM | NCI-H522 > 100 µM | OVCAR-3 67 µM | OVCAR-4 > 100 µM | PC-3 > 100 µM | RPMI-8226 > 100 µM | SK-OV-3 > 100 µM | SN12C > 100 µM | U-251 > 100 µM | UACC-257 > 100 µM

O=C1/C(=C2\Sc3c(ccc(Cl)c3Cl)C2=O)Sc2c1ccc(Cl)c2Cl
inactive: 786-0 > 100 µM | A549 > 100 µM | BT-549 > 100 µM | CCRF-CEM > 100 µM | EKVX > 100 µM | K562 > 100 µM | MDA-MB-231 > 100 µM | MDA-MB-435 > 100 µM | NCI-H226 > 100 µM | NCI-H460 > 100 µM | NCI-H522 > 100 µM | OVCAR-3 12.5 µM | OVCAR-4 > 100 µM | PC-3 > 100 µM | RPMI-8226 > 100 µM | SN12C > 100 µM | U-251 > 100 µM | UACC-257 > 100 µM

NC1=CC(C(=O)c2ccncc2)c2nc3ccccc3nc21 (stereo not drawn)
inactive: 786-0 > 100 µM | A549 > 100 µM | BT-549 > 100 µM | CCRF-CEM > 100 µM | EKVX > 100 µM | MDA-MB-231 > 100 µM | MDA-MB-435 > 100 µM | NCI-H226 > 100 µM | NCI-H460 75.5 µM | NCI-H522 > 100 µM | OVCAR-3 > 100 µM | OVCAR-4 > 100 µM | PC-3 > 100 µM | RPMI-8226 > 100 µM | SK-OV-3 > 100 µM | SN12C > 100 µM | U-251 > 100 µM | UACC-257 > 100 µM

COC(OC)[C@@H]1OC[C@H](n2cnc3c(N)ncnc32)[C@H]1O
inactive: 786-0 > 100 µM | A549 > 100 µM | BT-549 > 100 µM | CCRF-CEM > 100 µM | EKVX > 100 µM | K562 > 100 µM | MDA-MB-231 > 100 µM | MDA-MB-435 > 100 µM | NCI-H226 > 100 µM | NCI-H460 > 100 µM | OVCAR-3 > 100 µM | OVCAR-4 > 100 µM | PC-3 > 100 µM | RPMI-8226 > 100 µM | SK-OV-3 > 100 µM | SN12C > 100 µM | U-251 > 100 µM | UACC-257 > 100 µM

C/C(=C\c1ccccc1)C(=O)NCc1ccc(C(=O)NCCc2c[nH]c3ccccc23)cc1
inactive: 786-0 76 µM | A549 > 100 µM | BT-549 > 100 µM | CCRF-CEM 2.39 µM | EKVX 48.9 µM | K562 > 100 µM | MDA-MB-231 > 100 µM | MDA-MB-435 78 µM | NCI-H226 > 100 µM | NCI-H460 25.9 µM | NCI-H522 69 µM | OVCAR-3 42 µM | OVCAR-4 86.5 µM | PC-3 54.6 µM | RPMI-8226 > 100 µM | SK-OV-3 > 100 µM | SN12C > 100 µM | U-251 > 100 µM | UACC-257 13.6 µM

CC(=O)Oc1ccc(/C=C/C(=O)NCC(NC(=O)/C=C/c2ccc(OC(C)=O)c(OC(C)=O)c2)C(=O)O)cc1OC(C)=O (stereo not drawn)
inactive: 786-0 > 100 µM | A549 > 100 µM | BT-549 > 100 µM | CCRF-CEM 32 µM | EKVX > 100 µM | K562 56.2 µM | MDA-MB-231 > 100 µM | MDA-MB-435 > 100 µM | NCI-H226 > 100 µM | NCI-H460 > 100 µM | NCI-H522 46.8 µM | OVCAR-3 > 100 µM | OVCAR-4 > 100 µM | PC-3 > 100 µM | RPMI-8226 > 100 µM | SN12C > 100 µM | U-251 > 100 µM | UACC-257 > 100 µM
